Reference: patent publication US5496703A, “Indirect immunoassay for dioxinlike compounds” (priority 1993, dated 1996)
pEC50: −log10 of the molar value. Where “and” joins values, the source holds several entries; their conditions need not be identical. Equal values may be shown once.

Tests used:
[1] = tested on: cytochrome P-450IA1; assay: Ethoxyresorufin O-deethylase assay (EROD), X3 cells; type: cell-based, human; conditions: 16 hours
Experimental: The X3 human lymphoblastoma cells (Genetest, Wolburn, Mass.) were grown in 75 cm^2 T-flasks in RPMI 1640 medium (Gibco) containing 9% horse serum. Any cell or cell line expressing cytochrome P-450IA1 may be used. The cells were cultured at 37° C. in a 5% CO2 (balance air) environment. Cells were subcultured by centrifuging (1000 rpm, 3 minutes) and resuspended in fresh media to a volume of 50 mL (at a cell density of 1.0×10^6 cells/mL). The TCDD-corn oil solution was homogenized with serum to a final concentration of 0.10 μg/mL. The TCDD-serum was added at concentrations of 0, 0.02, 0.05, 0.1, 0.5 and 1.0 nM per flask and incubated for 16 hours. […] A final cell count was then determined.
Resorufin (hydroxyphenoxazone) and ethoxyresorufin were purchased from Molecular Probes (Junction City, Oreg.). EROD was measured by following the increase in fluorescence due to the formation of resorufin by dealkylation of its ethoxy derivative. […] A baseline of fluorescence was recorded at an excitation wavelength of 530 nm and an emission wavelength of 585 nm. The reaction was started with the addition of NADPH and the dealkylation of the derivative to resorufin was followed by a progressive increase in fluorescence as resorufin was generated. Recordings were standardized by measuring the fluorescence of freshly generated resorufin from resorufin acetate (Sigma, St. Louis, Mo.) prior to each assay. […]

[2] = tested on: protein kinase C; conditions: cited from earlier work
[3] = tested on: EGF receptor; conditions: cited from earlier work
[4] = tested on: phospholipase C; conditions: certain cell lines; cited from earlier work
[5] = target: Ah receptor; conditions: cited from earlier work
[6] = tested on: rodents; conditions: guinea pig to hamster; cited from earlier work

Clc1cc2c(cc1Cl)Oc1cc(Cl)c(Cl)cc1O2 [TCDD, 2,3,7,8-tetrachlorodibenzo-p-dioxin]
concentration of maximal EROD activity [1]: 2 nM and 1 nM
pEC50 ([1]; probit model): 9.52
protein kinase C activity [2]: increases the activity of protein kinase C
plasma membrane EGF receptor levels [3]: up-regulates plasma membrane EGF receptor levels
phospholipase C activation [4]: activates protein kinase C in certain cell lines but also phospholipase C
equilibrium dissociation constant (Kd), earlier Scatchard analysis ([5]; almost all Ah receptors studied): nM range
Kd, newer experimental approaches [5]: pM range
binding affinity to Ah receptor [5]: binds most strongly
range of LD50 among rodents [6]: ≥ 2500 fold
